Reference: publication PMC6994123, “A mosquito juvenile hormone binding protein (mJHBP) regulates the activation of innate immune defenses and hemocyte development” (PLoS Pathogens, 2020)

Key:
[1] = target: T1, mJHBP (Aedes aegypti, UniProt Q16Y94); test: isothermal titration calorimetry, single-site fit; type: binding; conditions: read-out: Ka
T1 construct: gene 5570847; two OBP domains; gel filtration, Q-Sepharose and Phenyl-Sepharose purified; probably mature protein
T1 sequence (Q16Y94 25-311): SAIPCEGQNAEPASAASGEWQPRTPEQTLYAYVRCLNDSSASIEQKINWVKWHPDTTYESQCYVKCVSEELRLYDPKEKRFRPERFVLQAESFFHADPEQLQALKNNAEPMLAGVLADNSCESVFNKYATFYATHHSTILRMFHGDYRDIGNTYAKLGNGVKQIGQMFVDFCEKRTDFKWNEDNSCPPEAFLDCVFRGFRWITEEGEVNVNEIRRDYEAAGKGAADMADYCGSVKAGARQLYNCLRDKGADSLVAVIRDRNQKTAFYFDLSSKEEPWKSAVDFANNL
Description: isothermal titration calorimetry, single-site fit on mJHBP | wild type mJHBP.

[2] = target: T2, mJHBP (Aedes aegypti, UniProt Q16Y94, Y152F); test: isothermal titration calorimetry, single-site fit; type: binding; conditions: read-out: Ka (converted)
T2 construct: gene 5570847; two OBP domains; gel filtration, Q-Sepharose and Phenyl-Sepharose purified; probably mature protein
T2 sequence (Q16Y94 25-311 Y152F): T1 sequence (Q16Y94 25-311)
Description: isothermal titration calorimetry, single-site fit on mJHBP | Y129F mutant.

COC(=O)/C=C(\C)CC/C=C(\C)CC[C@H]1OC1(C)C [JH III, juvenile hormone III]
Kd [1]: 100 nM | Kd [2]: 1090 nM
